Experimental data as given in paper PMC10051811, “Plasma and Cerebrospinal Fluid Concentrations of Micafungin Administered at High Doses in Critically Ill Infants with Systemic Candidiasis: A Pooled Analysis of Two Studies” (Pharmaceuticals, 2023).
Like-named read-outs stand apart in the source and are kept apart here. *1 amine or outer side, *2 acyl side, *3 side chain or, on linkers, in order; H or OH if unused. Where a SMILES comes first, the peptide text is derived from it. Bridges are numbered along the chain shown (N, C = ends). [ ]: non-standard residue; d: D form. The star is where a group is joined. hTyr(3S-OH,4S-OH,3'-OSO3H) = N[C@H](C(=O)O)[C@H](O)[C@@H](O)c1ccc(O)c(OS(=O)(=O)O)c1; Orn(4R-OH,5R-OH) = O=C([C@H](C[C@@H](O)[C@@H](O)N[*:3])N[*:1])[*:2]; Pro(3S-OH,4S-Me) = C[C@H]1CN[C@H](C(=O)O)[C@H]1O; X1 = CCCCCOc1ccc(-c2cc(-c3ccc(C(=O)*)cc3)no2)cc1; Gln(3R-OH) = NC(=O)C[C@@H](O)[C@H](N)C(=O)O; Hyp = O=C(O)[C@@H]1C[C@@H](O)CN1

How the values were obtained:
[1] = Micafungin plasma pharmacokinetics in neonates and young infants (HPLC); format: in vivo, human; conditions: for level at 1 h: read-out: Plasma values after 1 h; for level at 8 h: read-out: Plasma values after 8 h; for level at -1 h: read-out: Plasma values before infusion
Procedure: (§1) The dosage was formulated as a 2 mg/mL solution in 0.9% saline solution and administered intravenously over 1 h once daily. Infants who died within the first 48 h and those with acute or chronic hepatic diseases and/or known hypersensitivity to echinocandins were excluded. Each study with specific inclusion/exclusion criteria and definitions has been described in detail elsewhere.
(§2) Micafungin plasma and CSF concentrations were measured 1 h before and 1, 2, and 8 h after the end of the infusion. Sampling overlapped with those required for the clinical monitoring of these critical children. Blood samples were collected via heel puncture, using 0.3 mL capillary microtubes with EDTA, between Days 3 and 10 of micafungin therapy. Five minutes prior to sampling, the heel was warmed with a hot compress (40 °C), and puncture was performed using a Gentleheel incision device (Cardinal Health, Dublin, OH, USA) at alternate sites per timepoint. Blood picked up was centrifuged at 3000× g, and the plasma residue was stored at 4 °C until analyzed within 6 h or frozen at −20 °C and analyzed within 7 days, as previously reported. Drug concentrations were measured via high-performance liquid chromatography (HPLC). An HPLC method with a diode array detector was validated to fine-tune the measurement on small amounts of plasma (0.3 mL whole blood).
Moreover, we assessed the optimal dosage to obtain systemic drug exposure equivalent to that considered to be effective in adult patients. Systemic drug exposure was assessed via the area under the curve for 24 h (AUC0–24), the plasma clearance (CL), and the half-life. Results were stratified according to chronological age.

[2] = Micafungin concentrations in cerebrospinal fluid of infants with Candida meningitis (HPLC); format: in vivo; conditions: human, iv; for Kp at 1 h / Kp at 8 h / Kp: CSF (ratio to plasma); for Kp at 1 h: read-out: CSF/plasma ratio after 1 h; for Kp at 8 h: read-out: CSF/plasma ratio after 8 h; for Kp: read-out: CSF/plasma ratio before infusion; for level at 1 h / level at 8 h / level at -1 h: cerebrospinal fluid, HPLC; for level at 1 h: read-out: CSF values after 1 h; for level at 8 h: read-out: CSF values after 8 h; for level at -1 h: read-out: CSF values before infusion
Procedure: as §2, with “blood). […]” for “blood).”

invasive candidiasis = test: Microbiological and clinical success of micafungin therapy in infants with invasive candidiasis; format: in vivo, human; conditions: 8-15 mg/kg/day iv
Procedure: For this pooled analysis, we included data from a total of fifty-three neonates enrolled, aged ≤180 days (from the gestational age corrected at 37 weeks), affected with proven or suspected systemic candidiasis, whereby 3 of them had meningitis, who were treated for at least 14 days with micafungin (Mycamine®) at a dosage ranging from 8 to 15 mg/kg/day intravenously.
as §1

[3] = Treatment-emergent adverse events (TEAEs) in treated infants; format: in vivo, human
Procedure: In order to evaluate drug safety, we analyzed treatment-emergent adverse effects (TEAEs). TEAEs were defined as an adverse effect experienced any time during the study’s drug administration to 72 h after the last dose of the study drug. A reasonable possibility that the event could have been caused by the study drug was assessed by the investigators; if the relationship was missing, it was considered to be drug-related.

[4] = ref 1 (Yanni et al.), cited from earlier work
Procedure: Yanni et al. observed an increased clearance of micafungin in infants and children: 40–80 mL/h/kg in premature infants and 20 mL/h/kg in children >4 months of age.

[5] = cited from earlier work
Source text: This mechanism of action explains their characteristics of high specificity, even against resistant species of Candida. Micafungin is primarily eliminated via biliary excretion (90%), while the route of elimination via the kidney appears to be of minor importance in humans. Micafungin is bound to plasma proteins up to 99.5%. The binding to plasma proteins seems to be a ...

rats = rats treated for 3 months or more, dose of 150 mg/day (eight times the highest recommended human dose); cited from earlier work
[6] = human, iv, 7 mg/kg/day, Patient 1, dose 7 mg/kg/day iv, HPLC
[7] = human, iv, 8 mg/kg/day, Patient 3, dose 8 mg/kg/day iv, HPLC
[8] = human, iv, 10 mg/kg/day, Patient 1, dose 10 mg/kg/day iv, HPLC
[9] = human, iv, 10 mg/kg/day, Patient 2, dose 10 mg/kg/day iv, HPLC
[10] = human, iv, 15 mg/kg/day, Patient 2, dose 15 mg/kg/day iv, HPLC
[11] = 7 mg/kg/day, Patient 1, dose 7 mg/kg/day iv
[12] = 8 mg/kg/day, Patient 3, dose 8 mg/kg/day iv
[13] = 10 mg/kg/day, Patient 1, dose 10 mg/kg/day iv
[14] = 10 mg/kg/day, Patient 2, dose 10 mg/kg/day iv
[15] = 15 mg/kg/day, Patient 2, dose 15 mg/kg/day iv

SMILES: CCCCCOc1ccc(-c2cc(-c3ccc(C(=O)N[C@H]4C[C@@H](O)[C@@H](O)NC(=O)[C@@H]5[C@@H](O)[C@@H](C)CN5C(=O)[C@H]([C@H](O)CC(N)=O)NC(=O)[C@H]([C@H](O)[C@@H](O)c5ccc(O)c(OS(=O)(=O)O)c5)NC(=O)[C@@H]5C[C@@H](O)CN5C(=O)[C@H]([C@@H](C)O)NC4=O)cc3)no2)cc1 [micafungin] (X1-[Orn(4R-OH,5R-OH)]T[Hyp][hTyr(3S-OH,4S-OH,3'-OSO3H)][Gln(3R-OH)][Pro(3S-OH,4S-Me)]; lactam 1-C)
- half-life ([1]; age 0 to ≤28 days (n = 16), 8-15 mg/kg/day iv, mean ± SD, SD): 13.5 ± 7.6 h
- Clearance/weight ([1]; age >28 days ≤120 days (n = 23), 8-15 mg/kg/day iv, mean ± SD, SD): 0.6 ± 0.167 mL/min/kg
- level at 1 h [1, 6]: 15600 ng/mL
- level at 8 h [1, 6]: 8900 ng/mL
- level at -1 h [1, 6]: 2900 ng/mL
- level at 1 h [1, 7]: 27000 ng/mL
- level at 8 h [1, 7]: 16800 ng/mL
- level at -1 h [1, 7]: 9120 ng/mL
- level at 1 h [1, 8]: 21700 ng/mL
- level at 8 h [1, 8]: 6580 ng/mL
- level at -1 h [1, 8]: 3200 ng/mL
- level at 1 h [1, 9]: 17400 ng/mL
- level at 8 h [1, 9]: 8900 ng/mL
- level at -1 h [1, 9]: 6700 ng/mL
- level at 1 h [1, 10]: 21900 ng/mL
- level at 8 h [1, 10]: 12200 ng/mL
- level at -1 h [1, 10]: 5800 ng/mL
- clearance ([1]; human, iv, age 0 to ≤28 days (n = 16), 8-15 mg/kg/day iv over 1 h once daily, HPLC, mean ± SD, SD, read-out: Clearance (converted)): 1.2 mL/min
- clearance ([1]; human, iv, age 0 to ≤28 days (n = 16), 8-15 mg/kg/day iv, mean ± SD, SD, read-out: Clearance/weight (converted)): 0.6 mL/min/kg
- clearance ([1]; human, iv, age >28 days ≤120 days (n = 23), 8-15 mg/kg/day iv over 1 h once daily, HPLC, mean ± SD, SD, read-out: Clearance (converted)): 1.45 mL/min
- half-life ([1]; human, iv, age >28 days ≤120 days (n = 23), 8-15 mg/kg/day iv, mean ± SD, SD, read-out: Half-life (converted)): 13.4 ± 4.3 h
- clearance ([1]; human, iv, age >120 days (n = 13), 8-15 mg/kg/day iv over 1 h once daily, HPLC, mean ± SD, SD, read-out: Clearance (converted)): 1.82 mL/min
- clearance ([1]; human, iv, age >120 days (n = 13), 8-15 mg/kg/day iv, mean ± SD, SD, read-out: Clearance/weight (converted)): 0.467 mL/min/kg
- half-life ([1]; human, iv, age >120 days (n = 13), 8-15 mg/kg/day iv, mean ± SD, SD, read-out: Half-life (converted)): 14.4 ± 4.2 h
- AUC(0-t) ([1]; human, iv, plasma AUC0–24, age 0 to ≤28 days (n = 16), 8-15 mg/kg/day iv, mean ± SD, SD): 259 ± 92.7 µg·h/mL
- AUC(0-t) ([1]; human, iv, plasma AUC0–24, age >28 days ≤120 days (n = 23), 8-15 mg/kg/day iv, mean ± SD, SD): 237 ± 63.9 µg·h/mL
- AUC(0-t) ([1]; human, iv, plasma AUC0–24, age >120 days (n = 13), 8-15 mg/kg/day iv, mean ± SD, SD): 346 ± 145 µg·h/mL
- Kp at 1 h [2, 11]: 0.01
- Kp at 8 h [2, 11]: 0.02
- Kp [2, 11]: 0.05
- Kp at 1 h [2, 12]: 0.06
- Kp at 8 h [2, 12]: 0.08
- Kp [2, 12]: 0.22
- Kp at 1 h [2, 13]: 0.06
- Kp at 8 h [2, 13]: 0.19
- Kp [2, 13]: 0.38
- Kp at 1 h [2, 14]: 0.03
- Kp at 8 h [2, 14]: 0.03
- Kp [2, 14]: 0.06
- Kp at 1 h [2, 15]: 0.05
- Kp at 8 h [2, 15]: 0.07
- Kp [2, 15]: 0.16
- level at 1 h [2, 11]: 150 ng/mL
- level at 8 h [2, 11]: 150 ng/mL
- level at -1 h [2, 11]: 150 ng/mL
- level at 1 h [2, 12]: 1700 ng/mL
- level at 8 h [2, 12]: 1300 ng/mL
- level at -1 h [2, 12]: 2000 ng/mL
- level at 1 h [2, 13]: 1230 ng/mL
- level at 8 h [2, 13]: 1230 ng/mL
- level at -1 h [2, 13]: 1230 ng/mL
- level at 1 h [2, 14]: 500 ng/mL
- level at 8 h [2, 14]: 300 ng/mL
- level at -1 h [2, 14]: 400 ng/mL
- level at 1 h [2, 15]: 1100 ng/mL
- level at 8 h [2, 15]: 800 ng/mL
- level at -1 h [2, 15]: 900 ng/mL
- Clinical recovery (invasive candidiasis; infants with systemic candidiasis): all infants clinically recovered
- Microbiological success of the therapy (invasive candidiasis; subjects with invasive candidiasis, mean treatment duration 16.7 days, 95% CI = 51.2–97.9): 83.3%
- Patients with overall treatment-emergent adverse events (TEAEs) ([3]; 53 infants, 8-15 mg/kg/day iv, thirty-four patients): 64.2%
- Patients with transient hypertransaminasaemia ([3]; 53 infants, one patient, drug-related TEAE): 1.9%
- Drug-related TEAEs (not serious) ([3]; 53 infants, three TEAEs): 5.7%
- TEAEs leading to death (septic shock, not drug-related) ([3]; 53 infants, three cases): 5.7%
- Patients with transiently increased levels of gamma-glutamyltransferase ([3]; 53 infants, two patients, drug-related TEAE): 3.8%
- Serious adverse events related to the therapy ([3]; high doses 8–15 mg/kg/day in neonates and infants): no serious adverse events
- clearance ([4]; children >4 months of age): 0.333 mL/min/kg
- clearance ([4]; premature infants): 0.667 to 1.33 mL/min/kg
- Bound to plasma proteins [5]: up to 99.5%
- Elimination via biliary excretion ([5]; humans): 90%
- Hepatotoxicity finding in rats (rats): development of hepatocellular tumors
